Experimental findings from US8158621B2, “Methods of treating or preventing autoimmune diseases with 2,4-pyrimidinediamine compounds” (Rigel Pharmaceuticals, Inc., priority 2002, dated 2012) are described below.

Data set [1] has as its system basophil cells (human peripheral blood). Kind of data set: Basophil ionomycin activation: histamine release assay. Type of data set: cell-based. The conditions noted are these: basophils, ionomycin activation, histamine release; read-out: Basophils Ionomycin Histamine IC50. On the procedure:
(§1) The basophil activation assay was carried out using whole human peripheral blood from donors allergic to dust mites with the majority of the red blood cells removed by dextran sedimentation. Human peripheral blood was mixed 1:1 with 3% dextran T500 and RBCs were allowed to settle for 20-25min. The upper fraction was diluted with 3 volumes of D-PBS and cells were spun down for 10 min at 1500 rpm, RT. Supernatant was aspirated and cells were washed in an equal volume MT-buffer. Finally, cells were resuspended in MT-buffer containing 0.5% DMSO in the original blood volume. 80 uL cells were mixed with 20 uL compound in the presence of 0.5% DMSO, in triplicate, in a V-bottom 96-well tissue culture plate. A dose range of 8 compound concentrations was tested resulting in a 10-point dose response curve including maximum (stimulated) and minimum (unstimulated) response. […] The cells were stimulated for 30 minutes at 37° C., 5% CO2. The plate was spun for 10 min at 1500 rpm at room temperature and 80 uL the supernatant was harvested for histamine content analysis using the histamine ELISA kit supplied by Immunotech. The ELISA was performed according to supplier's instructions.
Assays for ionomycin-induced basophil cell degranulation were carried out as described for the Basophil IgE or Dustmite Activation Assay (Section 7.5.5, supra), with the exception that following incubation with compound, cells were stimulated with 20 μl of 2 μM ionomycin.

The subject of data set [2] is Human Jurkat T-cells (clone N). The data set is described as follows: Jurkat T-cell activation (anti-TCR, CD69 upregulation). Format: cell-based. Summed up:
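Readout is CD69 upregulation by flow cytometry (anti-CD69-APC, 20 min at 4 °C) after 20 h anti-TCR (C305, 500 ng/ml) stimulation at 37 °C.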

For data set [3], the system named is basophil cells (human peripheral blood). The data set is described as follows: Basophil anti-IgE activation: histamine release assay. The conditions noted are these: basophils, anti-IgE activation, histamine release; read-out: Basophils anti-IgE Histamine IC50. Type of data set: cell-based. On the procedure:
as §1

Data set [4] relates to FcγRI-mediated degranulation. Kind of data set: FcγRI-mediated degranulation (anti-human IgG Fab activation). Type of data set: cell-based. The settings on record: cells not primed with IgE, activated with rabbit anti-human IgG Fab fragment.
Data set [5] concerns the target T1, Syk kinase (Homo sapiens, UniProt P43405).
T1 construct: purchased Upstate, Lake Placid NY
Kind of data set: Syk kinase biochemical fluorescence polarization assay. The settings on record: isolated Syk kinase, fluorescence polarization, 4 uM ATP.

Data set [6] has as its system Primary human B-cells. Kind of data set: Primary B-cell activation (α-IgM, CD69 upregulation). Format: cell-based. The conditions noted are these: read-out: 1° B-Cell CD69 IC50. On the procedure: Primary human B-cells were isolated from buffy coat, the white cell layer that forms between the red cells and the […] when anti-coagulated blood is centrifuged, or from fresh blood using CD19-Dynal® beads and a FACS. Buffy coat was obtained from the Stanford Medical School Blood Centre, prepared on the same day by the blood bank, stored and transported cold (with ice). The buffy coat (approx 35 mL) was placed in a 500 mL conical sterile centrifuge pot and cooled on ice, then diluted with cold PBS containing 0.2% BSA (Sigma: A7638) and sodium citrate (0.1%, Sigma: S-5570) (P—B—C) to a total volume of 200 mL and mixed gently. Fresh blood was collected from donors in 10 mL vacutainers containing heparin (1 vacutainer collects approximately 8.5 mL blood). The blood was cooled on ice, transferred into 50 mL falcon tubes (20 mL/tube) or a 500 mL conical sterile centrifuge pot, and diluted with an equal volume P—B—C.
25 mL diluted blood or buffy coat was layered onto 15 mL cold ficoll and placed back on ice. The ficoll layered blood was centrifuged (Beckman GS-6R) for 45 minutes at 2000 rpm, 4° C. to separate the Peripheral Blood Mononuclear Cells (PBMC) from the Red Blood Cells (RBC) and granulocytes. The top aqueous layer was then aspirated until 1 inch above the PBMC layer. The PBMCs were transferred from every 2 ficoll tubes into one clean 50 mL falcon tube (=approx 10 mL/tube). The transferred PBMCs were diluted 5× with icecold PBS with 0.2% BSA (P—B) and centrifuged for 20 min at 1400 rpm and 4° C. The supernatant (this may be cloudy) was then aspirated and the PBMCs resuspended into 25 mL P—B and the cells counted (using a 1:5 dilution) and kept on ice.
The cells were then positively selected using anti-CD 19 antibody coupled to magnetic beads (Dynal®) as per manufacturer's instructions. The approximate required amount of CD19-Dynal® beads (CD19-coated dyna beads M-450 (pabB), Dynal®) was calculated by estimating the number of B-cells as 5% of PBMCs counted and adding approximately10 beads per cell from the bead stock (4×10^8 beads/mL). The CD19-Dynal® beads were washed 2× in P—B in a 5 mL tube using the Dynal® magnet, then added into the suspended PBMCs. This mixture was then passed through the Dynal® magnet and washed several times to separate the bead-bound cells.
After separation, the beads and antibody were removed using Dynal® CD19-DETACHaBEAD® for 45 min at 30° C. Yield is typically 2×10^7 B-cells per buffy coat. B-cells were washed and resuspended as 1E6 cells/mL in RPMI1640+10% FBS+Penicillin/[…]+1 ng/mL IFNα8. Cells were rested overnight at 37° C. and 5% CO2.
The following day, cells were washed and resuspended in RPMI+2.5% FBS to 1×10^6 cells/mL. Cells were then aliquoted into a V-bottom 96-well plate (Corning) at 65 uL cells per well. By robot, 65 uL of a 2× compound was added to the cells with final concentration of DMSO at 0.2%, and incubated for 1 hr at 37° C. Cells were then stimulated with 20 uL 7.5× α-IgM from Jackson laboratories (final 5 ug/mL) for 24 hrs. At day 3, the cells were spun down and stained for CD69 and analyzed by FACS gated on the live cells (by light scatter).
Varied concentrations of compound were compared to solvent only to determine the inhibition of B-cell activation IC50 of each compound.

Data set [7] has as its system Jurkat cells. The data set is described as follows: Jurkat toxicity, Cell Titer Glo assay. Format: cell-based, human. As for the experimental part: Seed 50 μl cells (1×10^6/ml) into each well containing 50 μl compound. […] Shake plates for 1 minute to mix cells and compound. Incubate plates at 37° C. […] Next day, harvest 50 μl cells from each well, add to 50 μl Cell Titer Glo reagent ([…]). Shake plates for 1 minute. Read on luminometer.

The subject of data set [8] is cultured human mast cells (CHMC). Kind of data set: CHMC low cell density ionomycin activation: tryptase assay. Format: cell-based. The settings on record: Low Density CHMC, ionomycin activation, tryptase release; read-out: CHMC Ionomycin Tryptase IC50.
For data set [9] the test system is unchanged. Kind of data set: CHMC high cell density IgE activation: tryptase. Type of data set: cell-based. As for the experimental part:
(§2) After sensitizing, cells are counted, pelleted (1000 rpm, 5-10 minutes), and resuspended at 1-2 ×10^6 cells/ml in MT buffer. Add 100 ul of cell suspension to each well and 100 ul of compound dilutions. The final vehicle concentration is 0.5% DMSO. Incubate at 37° C. (5% CO2) for 1 hour. After 1 hour of compound treatment, stimulate cells with 6× anti-IgE. Mix wells with the cells and allow plates to incubate at 37° C. (5% CO2) for one hour. After 1 hour incubation, pellet cells (10 minutes, 1000 RPM) and collect 200 ul per well of the supernatant, being careful not to disturb pellet. Place the supernatant plate on ice. During the 7-hour step (see next) perform tryptase assay on supernatant that had been diluted 1:500. Resuspend cell pellet in 240 ul of CM media containing 0.5% DMSO and corresponding concentration of compound. Incubate CHMC cells for 7 hours at 37° C. (5% CO2). After incubation, pellet cells (1000 RPM, 10 minutes) and collect 225 ul per well and place in −80° C. until ready to perform ELISAS. ELISAS are performed on appropriately diluted samples (determined empirically for each donor cell population so that the sample measurement falls within the standard curve) following the supplier's instructions.

Data set [10] has the same test system. Kind of data set: CHMC high cell density IgE activation: TNFalpha. The conditions noted are these: read-out: CHMC high density TNF-alpha. Format: cell-based. On the procedure:
as §2

Data set [11] shares this test system. Kind of data set: CHMC low cell density IgE activation: LTC4 assay. The settings on record: anti-IgE activation, LTC4 release. Type of data set: cell-based. As for the experimental part:
Pellet CHMC cells (980 rpm, 10 min) and resuspend in pre-warmed MT. Add 65 ul of cells to each 96-well plate. Depending on the degranulation activity for each particular CHMC donor, load 1000-1500 cells/well. Mix four times followed by a 1 hr incubation at 37° C. […] Stimulate cells by adding 25 ul of 6× anti-IgE solution to the appropriate plates. Add 25 ul MT to un-stimulated control wells. Mix twice following addition of the anti-IgE. Incubate at 37° C. for 30 minutes. […] Spin plates at 1000 rpm for 10 min to pellet cells. Transfer 25 ul of supernatant to a 96-well black bottom plate and add 100 ul of freshly diluted tryptase substrate solution to each well. Incubate plates at room temperature for 30 min.
Leukotriene C4 (LTC4) is also quantified using an ELISA kit on appropriately diluted supernatant samples (determined empirically for each donor cell population so that the sample measurement falls within the standard curve) following the supplier's instructions.

The test system is the same in data set [12]. The data set is described as follows: CHMC high cell density IgE activation: histamine. Format: cell-based. As for the experimental part: as §2
Data set [13] shares this test system. Kind of data set: CHMC low cell density IgE activation: tryptase assay. Type of data set: cell-based. The conditions noted are these: Low Density CHMC, anti-IgE activation, tryptase release; read-out: CHMC anti-IgE Tryptase IC50. Summed up:
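Degranulation is read as supernatant tryptase activity, using tryptase substrate incubated 30 min at room temperature. Before this, CHMC at low density (1000-1500 cells/well) rest 1 hr at 37° C and are triggered with anti-IgE for 30 min at 37° C.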

For data set [14] the test system is unchanged. Kind of data set: CHMC high cell density IgE activation: LTC4. Format: cell-based. As for the experimental part: as §2
The test system is the same in data set [15]. The data set is described as follows: CHMC high cell density IgE activation: hexos. Type of data set: cell-based. As for the experimental part:
as §2
Add 50 uL of BMMC cell supernatant (see above) to the hexoseaminidase substrate, place at 37° C. for 30 minutes and read the plate at 5, 10, 15, and 30 minutes on a spectrophotometer.

The nature of data set [16]: Mouse Reverse Passive Arthus reaction (RPA reaction). Format: in vivo, C57BL/6 mice. The settings on record: oral, 100 mg/kg. On the procedure:
In this model system, test compounds are administered at several timepoints prior to administration of Abs and Ags. A solution of rabbit anti-OVA IgG (50 μg in 25 μl/mouse) is injected intradermally, and immediately following is an intravenous injection of chicken egg albumin (20 mg/kg of body weight) in a solution containing 1% Evans blue dye. The degree of edema and hemorrhage is measured in the dorsal skin of C57BL/6 mice using the Evan's Blue dye as an indicator of local tissue damage. Purified polyclonal rabbit IgG is used as a control.
Pretreatment time, in which the test compounds are administered prior to Ab/Ag challenge, depends on the pharmacokinetic (PK) properties of each individual compound. Four hours after induction of Arthus reaction, mice are euthanized, and tissues are harvested for assessment of edema.

On to `Fc1cnc(Nc2ccc3c(c2)OC(F)(F)C(F)(F)O3)nc1Nc1ccc2c(c1)OC(F)(F)C(F)(F)O2` [Compound R926037], for which the IC50 in data set [1], in data set [2] and in [3] was over 10 µM each time.

As for `O=C1Nc2cc(Nc3ncc(F)c(Nc4ccc5c(c4)NC(=O)C(F)(F)O5)n3)ccc2OC1(F)F` [Compound R940352], in data set [4], the “inhibition of FcγRI-mediated degranulation” value was “inhibit FcγRI-mediated degranulation”. For the same compound, the IC50 in [2] worked out at 3.53 µM; in data set [5], 130 nM; in [6], 876 nM.

Take `CNC(=O)c1cc2cc(Nc3ncc(F)c(Nc4cccc(O)c4)n3)ccc2o1` [Compound R926493]: the IC50 in data set [7] was over 4.33 µM; in data set [2] it was 3.52 µM; in [8], 9.18 µM; in data set [9], 1090 nM; in data set [10] it was over 2000 nM; in data set [11] it was 78 nM. Moreover, the IC50 came to 1320 nM in data set [12], 250 nM in data set [13], 474 nM in data set [14] and 889 nM in data set [15].

Take `Fc1cnc(Nc2ccc3cn[nH]c3c2)nc1Nc1ccc(Cl)c(Cl)c1` [Compound R935372]: the “inhibition of FcγRI-mediated degranulation” value in [4] is “inhibit FcγRI-mediated degranulation”. The IC50 in [2] worked out at 30.7 µM; in data set [5], 205 nM. The entries for the “% inhibition to vehicle control Edema Size ± SEM” value in data set [16] (pretreatment time 0.5 hrs), in [16] (pretreatment time 1 hrs) and in data set [16] (pretreatment time 2 hrs) were −0.6 ± 6.2%, 23.5 ± 7.4% and −4.4 ± 17.7%, respectively. In addition, the “Plasma Concentration ± SEM (ng/ml) Exposure = Pretreatment Time + 4 hours” value is 0.6 ± 1 ng/mL in data set [16] (pretreatment time 0.5 hrs + 4 hours), 4.2 ± 4 ng/mL in [16] (pretreatment time 1 hrs + 4 hours) and 52.65 ± 39 ng/mL in data set [16] (pretreatment time 2 hrs + 4 hours).
